For one test, the system named is K-562. Put plainly: NCI-60 in vitro tumor cell screen, K-562. Conditions: Homo sapiens, K562; K-562, Leukemia. Format: cell-based. On the procedure:
(§1) All the synthesized thiazoles 1a–l, 2a–j, 3a–f and 4a–f were evaluated by the National Cancer Institute (Bethesda MD) for cytotoxicity against the NCI-60 cell line panel using standard protocols. Initially, all derivatives were tested at a single dose (10^−5 M) on the full panel of approximately 60 human tumor cell lines derived from 9 human cancer cell types, that have been grouped in disease sub-panels including leukemia, non-small-cell lung, colon, central nervous system (CNS), melanoma, ovarian, renal, prostate and breast cancers (data not shown). Compounds 1k and 4c were further selected for full evaluation at five concentration levels (10^−4–10^−8 M).
(§2) The antitumor activity of compounds 1k and 4c was given by three parameters for each cell line: GI50 (GI50 is the molar concentration of the compound that inhibits 50% net cell growth), TGI (TGI is the molar concentration of the compound leading to total inhibition of net cell growth), and LC50 (LC50 is the molar concentration of the compound that induces 50% net cell death). The average values of mean graph midpoint (MG_MID) were calculated for each of these parameters.

For a further test, the system named is NCI-H23. Put plainly: NCI-60 in vitro tumor cell screen, NCI-H23. The class given is cell-based. Conditions: Homo sapiens; NCI-H23, Non-Small Cell Lung Cancer. On the procedure:
as §1, §2

The test system of the next test is NCI-H322M. The test is described as follows: NCI-60 in vitro tumor cell screen, NCI-H322M. The class given is cell-based. Conditions: Homo sapiens, Non-Small Cell Lung Cancer. On the procedure: as §1, §2
The subject of another test is SF-268. The test is described as follows: NCI-60 in vitro tumor cell screen, SF-268. The class given is cell-based. As to conditions: Homo sapiens; SF-268, CNS Cancer. On the procedure: as §1, §2
The next test deals with SF-295. The test is described as follows: NCI-60 in vitro tumor cell screen, SF-295. Conditions: Homo sapiens; SF-295, CNS Cancer. Format: cell-based. On the procedure:
as §1, §2

The test system of a further test is SNB-75. The test is described as follows: NCI-60 in vitro tumor cell screen, SNB-75. The class given is cell-based. As to conditions: Homo sapiens; SNB-75, CNS Cancer. On the procedure:
as §1, §2

For the next test, the system named is MALME-3M. Put plainly: NCI-60 in vitro tumor cell screen, MALME-3M. Format: cell-based. As to conditions: Homo sapiens, Melanoma. On the procedure:
as §1, §2

Another test concerns IGROV1. Put plainly: NCI-60 in vitro tumor cell screen, IGROV1. Format: cell-based. Conditions: Homo sapiens, IGROV-1; IGROV1, Ovarian Cancer. On the procedure:
as §1, §2

A further test has as its system SR. Put plainly: NCI-60 in vitro tumor cell screen, SR. Format: cell-based. Conditions: Homo sapiens, Leukemia. On the procedure: as §1, §2
A further test relates to COLO-205. The test is described as follows: NCI-60 in vitro tumor cell screen, COLO-205. Format: cell-based. Conditions: Homo sapiens; COLO-205, Colon Cancer. On the procedure:
as §1, §2

In a further test the test system is SK-MEL-28. Put plainly: NCI-60 in vitro tumor cell screen, SK-MEL-28. The class given is cell-based. Conditions: Homo sapiens; SK-MEL-28, Melanoma. On the procedure:
as §1, §2

For the next test, the system named is UACC-257. Put plainly: NCI-60 in vitro tumor cell screen, UACC-257. Conditions: Homo sapiens; UACC-257, Melanoma. Format: cell-based. On the procedure: as §1, §2
The next test relates to SN12C. Put plainly: NCI-60 in vitro tumor cell screen, SN12C. The class given is cell-based. As to conditions: Homo sapiens, Renal Cancer. On the procedure: as §1, §2
The next test has as its system UO-31. Put plainly: NCI-60 in vitro tumor cell screen, UO-31. The class given is cell-based. As to conditions: Homo sapiens; UO-31, Renal Cancer. The protocol: as §1, §2
A further test deals with HCT-116 cells. The test is described as follows: Acidic vesicular organelles by acridine orange staining (FACS). Format: cell-based, human. As to conditions: 24 h. On the procedure:
AO is a fluorescent molecule used either to identify apoptotic cell death or autophagy. It can interact with DNA emitting green fluorescence or accumulate in acidic organelles where it is protonated forming aggregates that emit bright red fluorescence. Briefly, cells were stained with a AO solution (5 μg/mL) for 15 min. Then they were washed, re-suspended in PBS and subjected to FACS analysis. The green (510–530 nm, FL-1) and red (650 nm, FL-3) fluorescence of AO with blue (488 nm) excitation was determined over 10,000 events.

The structures appear in SMILES notation. Some results are limits rather than exact numbers.

The source of these data is paper PMC4306947, “Synthesis and Antiproliferative Activity of Thiazolyl-bis-pyrrolo[2,3-b]pyridines and Indolyl-thiazolyl-pyrrolo[2,3-c]pyridines, Nortopsentin Analogues” (Marine Drugs, 2015).

One may read the GI50 as the concentration at which growth is held to half of that of the control. Lower therefore signals more potent growth inhibition.

For `Cn1cc(-c2csc(-c3c[nH]c4ncccc34)n2)c2cc(Br)cnc21` [Compound 1k, 5-Bromo-1-methyl-3-[2-(1H-pyrrolo[2,3-b]pyridin-3-yl)-1,3-thiazol-4-yl]-1H-pyrrolo[2,3-b]pyridine], the GI50 in the test on K-562 is 8.76 µM; in the test on NCI-H23 it was 2.8 µM; in the test with NCI-H322M it was above 100 µM; with SF-268, 6.01 µM; with SF-295, 3.01 µM; with SNB-75, 2.18 µM. For the same molecule, the figures for the 50% growth inhibitory concentration (GI50) in the test on MALME-3M and with IGROV1 were 3.01 µM and 2.21 µM, respectively.

For `Clc1nccc2c(-c3csc(-c4c[nH]c5ccc(Br)cc45)n3)c[nH]c12` [Compound 4c, 3-[2-(5-Bromo-1H-indol-3-yl)-1,3-thiazol-4-yl]-7-chloro-1H-pyrrolo[2,3-c]pyridine], the GI50 in the test on K-562 was found to be 2.73 µM; in the test on SR, 1.27 µM; in the test on NCI-H23 it was 2.42 µM; in the test on NCI-H322M, 3.54 µM; with COLO-205, 1.8 µM; with SF-268, 4.06 µM. Besides, the GI50 in the test on SF-295 came out at 2.48 µM; in the test on SNB-75 it was 2.37 µM; in the test with SK-MEL-28 it was 1.85 µM; in the test on UACC-257 it was 2.68 µM; with IGROV1, 2.51 µM; in the test with SN12C, 3.35 µM. The molecule also yielded a GI50 in the test on UO-31 of 0.93 µM. Besides, the “increase of the bright red to green fluorescence intensity ratio of acridine orange” value with HCT-116 cells (concentration GI30, vs control) came out at 10 fold. Moreover, in the test with HCT-116 cells (highest drug concentration), the “percent of cells with AVO with respect to control” value is on record as “did not significantly modify”.
